Measured values from patent publication US10479780B2, “Aminopyrazole derivatives” (Chugai Seiyaku Kabushiki Kaisha, priority 2015, dated 2019).

How the values were obtained:
Assay type in all cases: biochemical
[1] = molecular target: T1, human Yes1 enzyme (Homo sapiens, UniProt P07947); assay: Yes1 enzyme inhibitory activity (time-resolved fluorometry, biotinylated peptide phosphorylation); conditions: biotinylated peptide phosphorylation, read-out: YES_IC50
T1 construct: made in house
Method in brief: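 Inhibition was expressed against a compound-free control to give IC50, using TR-FRET read-out (Eu-cryptate anti-pTyr antibody, streptavidin-XL665).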

[2] = molecular target: T2, human Src enzyme (Homo sapiens, UniProt P12931); assay: Src enzyme inhibitory activity (time-resolved fluorometry, biotinylated peptide phosphorylation); conditions: biotinylated peptide phosphorylation, read-out: SRC_IC50
T2 construct: purchased Carna Biosciences, Inc. 08-173
T2 sequence (P12931 whole entry): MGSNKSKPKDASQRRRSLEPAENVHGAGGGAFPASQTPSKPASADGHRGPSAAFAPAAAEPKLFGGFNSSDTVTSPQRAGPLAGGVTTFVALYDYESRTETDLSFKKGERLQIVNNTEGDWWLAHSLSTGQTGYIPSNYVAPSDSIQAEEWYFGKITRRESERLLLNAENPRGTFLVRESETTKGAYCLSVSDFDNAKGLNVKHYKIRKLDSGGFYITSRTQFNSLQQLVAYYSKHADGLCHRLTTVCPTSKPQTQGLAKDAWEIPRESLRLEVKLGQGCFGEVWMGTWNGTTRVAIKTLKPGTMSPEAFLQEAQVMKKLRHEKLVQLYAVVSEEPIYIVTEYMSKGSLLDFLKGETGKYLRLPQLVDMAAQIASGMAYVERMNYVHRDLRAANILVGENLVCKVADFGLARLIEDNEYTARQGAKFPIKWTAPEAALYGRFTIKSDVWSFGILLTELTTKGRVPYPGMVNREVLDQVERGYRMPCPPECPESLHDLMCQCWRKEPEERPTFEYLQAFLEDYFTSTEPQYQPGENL
Method in brief: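 Compounds were tested for blocking tyrosine phosphorylation of a biotinylated peptide substrate by recombinant human Src. Phosphorylated product was quantified by time-resolved fluorometry using europium cryptate and XL665 conjugates, and IC50 was calculated against the compound-free control.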

[3] = molecular target: T3, human Lck enzyme (Homo sapiens, UniProt P06239); assay: Lck enzyme inhibitory activity (time-resolved fluorometry, biotinylated peptide phosphorylation); conditions: biotinylated peptide phosphorylation, read-out: LCK_IC50
T3 construct: purchased Carna Biosciences, Inc. 08-170
T3 sequence (P06239 whole entry): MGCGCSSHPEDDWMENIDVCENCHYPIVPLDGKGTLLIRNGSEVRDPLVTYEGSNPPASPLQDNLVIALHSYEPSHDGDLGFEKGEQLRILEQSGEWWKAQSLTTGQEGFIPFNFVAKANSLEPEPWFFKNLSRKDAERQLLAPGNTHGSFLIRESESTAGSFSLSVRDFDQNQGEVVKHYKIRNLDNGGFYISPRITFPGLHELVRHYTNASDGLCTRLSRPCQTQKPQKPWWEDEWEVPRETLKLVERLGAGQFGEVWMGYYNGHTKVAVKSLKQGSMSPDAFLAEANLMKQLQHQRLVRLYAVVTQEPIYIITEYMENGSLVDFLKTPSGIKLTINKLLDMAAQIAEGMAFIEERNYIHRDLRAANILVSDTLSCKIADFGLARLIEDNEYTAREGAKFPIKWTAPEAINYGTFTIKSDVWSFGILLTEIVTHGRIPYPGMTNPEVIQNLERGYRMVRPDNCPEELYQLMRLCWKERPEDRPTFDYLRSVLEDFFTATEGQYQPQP
Method in brief: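 Readout pairs a europium cryptate-labelled anti-phosphotyrosine antibody with XL665-streptavidin, measured by time-resolved fluorescence. IC50 derived from percent inhibition against untreated controls.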

T1 sequence (P07947 whole entry): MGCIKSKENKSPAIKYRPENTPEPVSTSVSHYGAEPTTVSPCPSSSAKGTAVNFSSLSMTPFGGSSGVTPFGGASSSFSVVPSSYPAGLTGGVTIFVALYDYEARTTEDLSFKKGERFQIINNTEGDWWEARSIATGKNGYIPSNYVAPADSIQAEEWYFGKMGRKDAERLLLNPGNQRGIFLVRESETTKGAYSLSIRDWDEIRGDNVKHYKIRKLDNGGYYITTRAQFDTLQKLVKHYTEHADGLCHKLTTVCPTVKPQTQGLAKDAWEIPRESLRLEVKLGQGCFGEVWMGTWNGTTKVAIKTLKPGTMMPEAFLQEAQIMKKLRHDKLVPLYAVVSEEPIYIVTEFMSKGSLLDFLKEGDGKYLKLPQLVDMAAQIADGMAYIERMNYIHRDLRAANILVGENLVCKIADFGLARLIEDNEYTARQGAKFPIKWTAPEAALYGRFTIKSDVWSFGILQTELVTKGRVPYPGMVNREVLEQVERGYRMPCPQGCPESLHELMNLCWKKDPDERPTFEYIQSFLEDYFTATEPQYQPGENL

Structure (SMILES)	IC50 [1] [nM]	IC50 [2] [nM]	IC50 [3] [nM]
Cc1cc(Oc2c(F)cccc2F)ncc1-n1ncc(C(=O)c2cc3cc(F)c(NS(C)(=O)=O)cc3[nH]2)c1N [Example 4-2-031, N-[2-[5-amino-1-[6-(2,6-difluorophenoxy)-4-methylpyridin-3-yl]pyrazole-4-carbonyl]-5-fluoro-1H-indol-6-yl]methanesulfonamide]	0.69	37	4.3
Cc1cc(Oc2cccc(F)c2F)ncc1-n1ncc(C(=O)c2cc3cc(F)c(NS(C)(=O)=O)cc3[nH]2)c1N [Example 4-2-032, N-[2-[5-amino-1-[6-(2,3-difluorophenoxy)-4-methylpyridin-3-yl]pyrazole-4-carbonyl]-5-fluoro-1H-indol-6-yl]methanesulfonamide]	3.5	92	27
Cc1cc(Oc2ccccc2Cl)ncc1-n1ncc(C(=O)c2cc3cc(F)c(NS(C)(=O)=O)cc3[nH]2)c1N [Example 4-2-033, N-[2-[5-amino-1-[6-(2-chlorophenoxy)-4-methylpyridin-3-yl]pyrazole-4-carbonyl]-5-fluoro-1H-indol-6-yl]methanesulfonamide]	0.91	49	19
Cc1cc(Oc2c(F)cccc2Cl)ncc1-n1ncc(C(=O)c2cc3cc(F)c(NS(C)(=O)=O)cc3[nH]2)c1N [Example 4-2-035, N-[2-[5-amino-1-[6-(2-chloro-6-fluorophenoxy)-4-methylpyridin-3-yl]pyrazole-4-carbonyl]-5-fluoro-1H-indol-6-yl]methanesulfonamide]	1.3	59	6.7
Cc1ccccc1Oc1cc(C)c(-n2ncc(C(=O)c3cc4cc(F)c(NS(C)(=O)=O)cc4[nH]3)c2N)cn1 [Example 4-2-036, N-[2-[5-amino-1-[4-methyl-6-(2-methylphenoxy)pyridin-3-yl]pyrazole-4-carbonyl]-5-fluoro-1H-indol-6-yl]methanesulfonamide]	1.5	60	21
Cc1cc(Oc2ccc(F)cc2)ncc1-n1ncc(C(=O)c2cc3cc(F)c(NS(C)(=O)=O)cc3[nH]2)c1N [Example 4-2-039, N-[2-[5-amino-1-[6-(4-fluorophenoxy)-4-methylpyridin-3-yl]pyrazole-4-carbonyl]-5-fluoro-1H-indol-6-yl]methanesulfonamide]	4.1	84	32
Cc1cc(Oc2ccccc2F)ncc1-n1ncc(C(=O)c2cc3cc(F)c(NS(=O)(=O)C4CC4)cc3[nH]2)c1N [Example 4-2-043, N-[2-[5-amino-1-[6-(2-fluorophenoxy)-4-methylpyridin-3-yl]pyrazole-4-carbonyl]-5-fluoro-1H-indol-6-yl]cyclopropanesulfonamide]	1.4	87	28
Cc1cc(Oc2c(F)cccc2F)ncc1-n1ncc(C(=O)c2cc3cc(F)c(NS(=O)(=O)C4CC4)cc3[nH]2)c1N [Example 4-2-044, N-[2-[5-amino-1-[6-(2,6-difluorophenoxy)-4-methylpyridin-3-yl]pyrazole-4-carbonyl]-5-fluoro-1H-indol-6-yl]cyclopropanesulfonamide]	7	160	32
Cc1cc(Oc2cccc(F)c2)ncc1-n1ncc(C(=O)c2cc3cc(F)c(NS(=O)(=O)C4CC4)cc3[nH]2)c1N [Example 4-2-048, N-[2-[5-amino-1-[6-(3-fluorophenoxy)-4-methylpyridin-3-yl]pyrazole-4-carbonyl]-5-fluoro-1H-indol-6-yl]cyclopropanesulfonamide]	12	290	79
Cc1cc2[nH]c(C(=O)c3cnn(-c4ccc(Oc5cccc(F)c5F)cc4C)c3N)cc2cc1NS(C)(=O)=O [Example 4-2-050, N-[2-[5-amino-1-[4-(2,3-difluorophenoxy)-2-methylphenyl]pyrazole-4-carbonyl]-6-methyl-1H-indol-5-yl]methanesulfonamide]	0.2	7	1.7
Cc1cc2[nH]c(C(=O)c3cnn(-c4c(C)cc(Oc5ccccc5F)cc4F)c3N)cc2cc1NS(C)(=O)=O [Example 4-2-051, N-[2-[5-amino-1-[2-fluoro-4-(2-fluorophenoxy)-6-methylphenyl]pyrazole-4-carbonyl]-6-methyl-1H-indol-5-yl]methanesulfonamide]	0.59	3.8	1.2
Cc1cc2[nH]c(C(=O)c3cnn(-c4cnc(Oc5ccccc5F)cc4C)c3N)cc2cc1NS(C)(=O)=O [Example 4-2-052, N-[2-[5-amino-1-[6-(2-fluorophenoxy)-4-methylpyridin-3-yl]pyrazole-4-carbonyl]-6-methyl-1H-indol-5-yl]methanesulfonamide]	0.44	5.2	0.97

Further lines, results first:

IC50 [1] [nM]	IC50 [2] [nM]	IC50 [3] [nM]	Structure (SMILES)
1.7	110	26	Cc1cc(Oc2cc(F)ccc2F)ncc1-n1ncc(C(=O)c2cc3cc(F)c(NS(C)(=O)=O)cc3[nH]2)c1N [Example 4-2-030, N-[2-[5-amino-1-[6-(2,5-difluorophenoxy)-4-methylpyridin-3-yl]pyrazole-4-carbonyl]-5-fluoro-1H-indol-6-yl]methanesulfonamide]
4.6	140	44	Cc1cc(Oc2cc(F)ccc2Cl)ncc1-n1ncc(C(=O)c2cc3cc(F)c(NS(C)(=O)=O)cc3[nH]2)c1N [Example 4-2-034, N-[2-[5-amino-1-[6-(2-chloro-5-fluorophenoxy)-4-methylpyridin-3-yl]pyrazole-4-carbonyl]-5-fluoro-1H-indol-6-yl]methanesulfonamide]
1.1	78	30	Cc1cc(Oc2cccc(Cl)c2)ncc1-n1ncc(C(=O)c2cc3cc(F)c(NS(C)(=O)=O)cc3[nH]2)c1N [Example 4-2-037, N-[2-[5-amino-1-[6-(3-chlorophenoxy)-4-methylpyridin-3-yl]pyrazole-4-carbonyl]-5-fluoro-1H-indol-6-yl]methanesulfonamide]
1.9	130	40	Cc1cc(Oc2cccc(F)c2)ncc1-n1ncc(C(=O)c2cc3cc(F)c(NS(C)(=O)=O)cc3[nH]2)c1N [Example 4-2-038, N-[2-[5-amino-1-[6-(3-fluorophenoxy)-4-methylpyridin-3-yl]pyrazole-4-carbonyl]-5-fluoro-1H-indol-6-yl]methanesulfonamide]
2.2	42	24	Cc1cc(Oc2ccccc2F)ccc1-n1ncc(C(=O)c2cc3cc(F)c(NS(=O)(=O)C4CC4)cc3[nH]2)c1N [Example 4-2-040, N-[2-[5-amino-1-[4-(2-fluorophenoxy)-2-methylphenyl]pyrazole-4-carbonyl]-5-fluoro-1H-indol-6-yl]cyclopropanesulfonamide]
0.79	84	38	Cc1cc(Oc2cccc(F)c2F)ccc1-n1ncc(C(=O)c2cc3cc(F)c(NS(=O)(=O)C4CC4)cc3[nH]2)c1N [Example 4-2-041, N-[2-[5-amino-1-[4-(2,3-difluorophenoxy)-2-methylphenyl]pyrazole-4-carbonyl]-5-fluoro-1H-indol-6-yl]cyclopropanesulfonamide]
32	840	370	Cc1cc(Oc2ccccc2F)cc(C)c1-n1ncc(C(=O)c2cc3cc(F)c(NS(=O)(=O)C4CC4)cc3[nH]2)c1N [Example 4-2-042, N-[2-[5-amino-1-[4-(2-fluorophenoxy)-2,6-dimethylphenyl]pyrazole-4-carbonyl]-5-fluoro-1H-indol-6-yl]cyclopropanesulfonamide]
4.9	230	89	Cc1cc(Oc2cccc(F)c2F)ncc1-n1ncc(C(=O)c2cc3cc(F)c(NS(=O)(=O)C4CC4)cc3[nH]2)c1N [Example 4-2-045, N-[2-[5-amino-1-[6-(2,3-difluorophenoxy)-4-methylpyridin-3-yl]pyrazole-4-carbonyl]-5-fluoro-1H-indol-6-yl]cyclopropanesulfonamide]
12	230	48	Cc1cc(Oc2c(F)cccc2Cl)ncc1-n1ncc(C(=O)c2cc3cc(F)c(NS(=O)(=O)C4CC4)cc3[nH]2)c1N [Example 4-2-046, N-[2-[5-amino-1-[6-(2-chloro-6-fluorophenoxy)-4-methylpyridin-3-yl]pyrazole-4-carbonyl]-5-fluoro-1H-indol-6-yl]cyclopropanesulfonamide]
4.5	79	64	Cc1ccccc1Oc1cc(C)c(-n2ncc(C(=O)c3cc4cc(F)c(NS(=O)(=O)C5CC5)cc4[nH]3)c2N)cn1 [Example 4-2-047, N-[2-[5-amino-1-[4-methyl-6-(2-methylphenoxy)pyridin-3-yl]pyrazole-4-carbonyl]-5-fluoro-1H-indol-6-yl]cyclopropanesulfonamide]
0.29	1.9	1.7	Cc1cc2[nH]c(C(=O)c3cnn(-c4ccc(Oc5ccccc5F)cc4C)c3N)cc2cc1NS(C)(=O)=O [Example 4-2-049, N-[2-[5-amino-1-[4-(2-fluorophenoxy)-2-methylphenyl]pyrazole-4-carbonyl]-6-methyl-1H-indol-5-yl]methanesulfonamide]
0.34	19	5.1	Cc1cc2cc(C(=O)c3cnn(-c4ccc(Oc5ccccc5F)cc4C)c3N)[nH]c2cc1NS(C)(=O)=O [Example 4-2-053, N-[2-[5-amino-1-[4-(2-fluorophenoxy)-2-methylphenyl]pyrazole-4-carbonyl]-5-methyl-1H-indol-6-yl]methanesulfonamide]
